Assay type in all cases: biochemical
The target of experiment [1] is T1, catalytic domain of MMP-13 enzyme (Homo sapiens, UniProt P45452).
T1 construct: catalytic domain of MMP-13 enzyme (produced by Alantos or commercially available from Invitek (Berlin), Cat. # 30100812); purchased Invitek (Berlin) 30100812
Description: Assay for determining MMP-13 inhibition (fluorescent substrate). The settings on record: read-out: MMP-13 Activity (IC50 MMP-13), Group. The protocol:
The typical assay for MMP-13 activity is carried out in assay buffer comprised of 50 mM Tris, pH 7.5, 150 mM NaCl, 5 mM CaCl2 and 0.05% Brij-35. Different concentrations of tested compounds are prepared in assay buffer in 50 μL aliquots. 10 μL of a 50 nM stock solution of catalytic domain of MMP-13 enzyme (produced by Alantos or commercially available from Invitek (Berlin), Cat. # 30100812) is added to the compound solution. The mixture of enzyme and compound in assay buffer is thoroughly mixed and incubated for 10 min at room temperature. Upon the completion of incubation, the assay is started by addition of 40 μl of a 12.5 μM stock solution of MMP-13 fluorescent substrate (Calbiochem, Cat. No. 444235). The time-dependent increase in fluorescence is measured at the 320 nm excitation and 390 nm emission by automatic plate multireader. The IC50 values are calculated from the initial reaction rates.

For experiment [2], the target named is T2, catalytic domain of MMP-3 enzyme (Homo sapiens, UniProt P08254).
T2 construct: catalytic domain of MMP-3 enzyme (Biomol, Cat. No. SE-109); purchased Biomol SE-109
As to the kind of experiment: Assay for determining MMP-3 inhibition (NFF-3 fluorescent substrate). The note with it: read-out: MMP-3 Activity (IC50 MMP-3), Group. The protocol: The typical assay for MMP-3 activity is carried out in assay buffer comprised of 50 mM MES, pH 6.0, 10 mM CaCl2 and 0.05% Brij-35. Different concentrations of tested compounds are prepared in assay buffer in 50 μL aliquots. 10 μL of a 100 nM stock solution of the catalytic domain of MMP-3 enzyme (Biomol, Cat. No. SE-109) is added to the compound solution. The mixture of enzyme and compound in assay buffer is thoroughly mixed and incubated for 10 min at room temperature. Upon the completion of incubation, the assay is started by addition of 40 μL of a 12.5 μM stock solution of NFF-3 fluorescent substrate (Calbiochem, Cat. No. 480455). The time-dependent increase in fluorescence is measured at the 330 nm excitation and 390 nm emission by an automatic plate multireader. The IC50 values are calculated from the initial reaction rates.

In the next experiment the target is T3, activated MMP-8 enzyme (Homo sapiens, UniProt P22894).
T3 construct: purchased Calbiochem 444229
As to the kind of experiment: Assay for determining MMP-8 inhibition (OmniMMP fluorescent substrate). The settings on record: read-out: MMP-8 Activity (IC50 MMP-8), Group. The protocol:
The typical assay for MMP-8 activity is carried out in assay buffer comprised of 50 mM Tris, pH 7.5, 150 mM NaCl, 5 mM CaCl2 and 0.05% Brij-35. Different concentrations of tested compounds are prepared in assay buffer in 50 μL aliquots. 10 μL of a 50 nM stock solution of activated MMP-8 enzyme (Calbiochem, Cat. No. 444229) is added to the compound solution. The mixture of enzyme and compound in assay buffer is thoroughly mixed and incubated for 10 min at 37° C. Upon the completion of incubation, the assay is started by addition of 40 μL of a 10 μM stock solution of OmniMMP fluorescent substrate (Biomol, Cat. No. P-126). The time-dependent increase in fluorescence is measured at the 320 nm excitation and 390 nm emission by an automatic plate multireader at 37° C. The IC50 values are calculated from the initial reaction rates.

Molecules are shown by their SMILES.

T2 sequence (P08254 100-272 limits assumed): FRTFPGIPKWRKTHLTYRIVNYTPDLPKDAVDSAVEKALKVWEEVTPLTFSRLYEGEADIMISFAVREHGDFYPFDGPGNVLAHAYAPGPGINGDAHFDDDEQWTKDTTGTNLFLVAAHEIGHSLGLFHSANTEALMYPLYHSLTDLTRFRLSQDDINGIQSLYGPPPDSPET
T3 sequence (P22894 101-467): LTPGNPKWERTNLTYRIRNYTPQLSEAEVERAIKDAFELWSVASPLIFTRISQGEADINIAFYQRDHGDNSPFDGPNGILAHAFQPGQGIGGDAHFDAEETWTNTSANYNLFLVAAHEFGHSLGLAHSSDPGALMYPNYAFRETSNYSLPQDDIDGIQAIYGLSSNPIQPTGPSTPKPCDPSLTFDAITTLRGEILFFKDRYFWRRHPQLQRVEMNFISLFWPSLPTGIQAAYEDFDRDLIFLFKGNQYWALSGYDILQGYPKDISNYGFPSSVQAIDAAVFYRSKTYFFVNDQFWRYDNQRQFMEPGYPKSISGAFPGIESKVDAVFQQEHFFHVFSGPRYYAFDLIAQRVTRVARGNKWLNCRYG

Broadly, the IC50 is the midpoint of a concentration-inhibition curve. For `Nc1c(N2CCc3ccc(CNC(=O)c4nc5scc(-c6cccs6)c5c(=O)[nH]4)cc3C2)c(=O)c1=O` [2/51], the IC50 is less than 100 nM in experiment [1], less than 250 nM in experiment [2] and 250 to 20000 nM on activated MMP-8 enzyme.
On to `Cc1c(CC(=O)O)sc2nc(C(=O)NCc3ccc4c(c3)CN(c3c(N)c(=O)c3=O)CC4)[nH]c(=O)c12` [4/13], for which the IC50 was less than 100 nM in experiment [1], less than 250 nM in experiment [2] and less than 250 nM on activated MMP-8 enzyme.
On to `Cc1nsc2nc(C(=O)NCc3ccc4c(c3)CN(c3c(N)c(=O)c3=O)CC4)[nH]c(=O)c12` [2/134], for which the IC50 in experiment [1] is 100 to 20000 nM; in experiment [2], less than 250 nM; at activated MMP-8 enzyme, 250 to 20000 nM.
Taken in the same sequence, the figures for `O=C1COc2ccc(CNC(=O)c3nc4scc(C(F)(F)F)c4c(=O)[nH]3)cc2N1` [2/86] were less than 100 nM, less than 250 nM and 250 to 20000 nM.
Consider `O=C1COc2ccc(CNC(=O)c3nc4ccc(CNC(=O)c5ccccc5)cc4c(=O)[nH]3)cc2N1` [2/93], for which the IC50 in experiment [1] is less than 100 nM; in experiment [2], 250 to 20000 nM; on activated MMP-8 enzyme, less than 250 nM.
Taken in the same sequence, the figures for `O=C1COc2ccc(CNC(=O)c3nc4ccc(Br)cc4c(=O)[nH]3)cc2N1` [Example 2/21] were less than 100 nM, less than 250 nM and less than 250 nM.
Taken in the same sequence, the figures for `Cc1sc2nc(C(=O)NCc3ccc4c(c3)NC(=NC#N)CO4)[nH]c(=O)c2c1C` [2/221] were less than 100 nM, 250 to 20000 nM and less than 250 nM.
The corresponding values for `O=C1COc2ccc(CNC(=O)c3nc4c(c(=O)[nH]3)CCCC4)cc2N1` [2/55] are less than 100 nM, 250 to 20000 nM and less than 250 nM.
In the case of `O=C1COc2ccc(CNC(=O)c3nc4cccc(F)c4c(=O)[nH]3)cc2N1` [2/74], the IC50 in experiment [1] was less than 100 nM; in experiment [2], less than 250 nM; at activated MMP-8 enzyme, less than 250 nM.
As for `Cc1sc2nc(C(=O)NCc3ccc4c(c3)NC(=O)CO4)[nH]c(=O)c2c1C` [2/46], the IC50 in experiment [1] is less than 100 nM; in experiment [2], 250 to 20000 nM; on activated MMP-8 enzyme, less than 250 nM.
Turning to `O=C1COc2ccc(CNC(=O)c3nc4ccsc4c(=O)[nH]3)cc2N1` [2/20], the IC50 in experiment [1] was less than 100 nM; in experiment [2], 250 to 20000 nM; at activated MMP-8 enzyme it was 250 to 20000 nM.
As to `C[C@@H](NC(=O)c1ccccc1)c1ccc2nc(C(=O)NCc3ccc4c(c3)NC(=O)CO4)[nH]c(=O)c2c1` [29/1], the IC50 in experiment [1] is less than 100 nM; in experiment [2] it was 250 to 20000 nM; on activated MMP-8 enzyme, less than 250 nM.

The values are drawn from US7713966B2, “Heterobicyclic metalloprotease inhibitors” (Alantos Pharmaceuticals Holding, Inc., priority 2006, dated 2010).
